From USRE32016E, “Analysis of lactic acid or lactate using lactate oxidase” (Eastman Kodak Company, priority 1981, dated 1985) come the findings set out here.

In this test the target is lactate oxidase from Streptococcus faecalis ATCC 12755 (Enterococcus casseliflavus, UniProt C9AC47). The conditions noted are these: read-out: Km for L(+)-lactate; 30° C., potassium phosphate buffer pH 7.0.

Structures are written as SMILES.

Sequence of lactate oxidase from Streptococcus faecalis ATCC 12755 (C9AC47 entry or part of it): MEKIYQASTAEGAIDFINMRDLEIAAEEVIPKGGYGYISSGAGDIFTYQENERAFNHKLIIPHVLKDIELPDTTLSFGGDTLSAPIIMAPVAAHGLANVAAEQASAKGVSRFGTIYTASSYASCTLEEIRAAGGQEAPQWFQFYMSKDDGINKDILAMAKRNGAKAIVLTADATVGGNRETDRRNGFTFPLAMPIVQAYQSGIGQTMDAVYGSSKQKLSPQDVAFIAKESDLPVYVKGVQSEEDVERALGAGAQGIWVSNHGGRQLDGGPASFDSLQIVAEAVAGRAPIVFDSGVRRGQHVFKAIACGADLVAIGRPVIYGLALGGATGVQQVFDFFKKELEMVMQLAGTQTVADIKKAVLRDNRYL
Protocol: For spectrophotometric assay of the lactate oxidase standard reaction mixtures contained in a total volume of 1.0 ml: 100 μmoles potassium phosphate buffer, pH 7.0, 25 μmoles lactic acid, 30 μg horseradish peroxidase (5.6 purpurogallin units), and 0.25 μmoles orthodianisidine. Samples were equilibrated at 30° C. and then reactions initiated by addition of S. faecalis lactate oxidase. Absorbance at 430 nm was measured in a Beckman A-25 Spectrophotometer. Initial rates were calculated from the linear portion of the curve and converted to units of lactate oxidase activity were appropriate. One unit=1 μmole of dye produced per minute at 30° C. using an ε=1.1×10^4 for orthodianisidine.
Reaction mixtures contained in a total volume of 1.0 ml: 90 μmoles potassium phosphate buffer, (pH 7.0), 0.2 μmoles orthodianisidine, or 96 μg 4-aminoantipyrene hydrochloride and 32 μg 1,7-dihydroxynaphthalene, 25 μg horseradish peroxidase (5.6-purpurogallin units) and 0.64 mg lactate oxidase (0.4 units).
Samples were equilibrated at 30° C. and the initial absorbance measured at 430 nm. […] For each serum sample, a blank, which contained all components except the lactate oxidase, was treated in the same manner as the sample. The ΔA430 for each blank was subtracted from the ΔA430 of the appropriate sample and the lactate concentration was determined by comparison to a lactate standard curve. […]

What is called Km is the concentration of substrate that gives half-maximal velocity. Take `C[C@H](O)C(=O)O` [L(+)-lactate]: the Km stood at 200 µM.
